From ChEMBL document CHEMBL1765029, “Synthesis and biological evaluation of estradiol linked pyrrolo[2,1-c][1,4]benzodiazepine (PBD) conjugates as potential anticancer agents” (2011)
Where a name gives a salt, the structure may show the parent alone.

What was measured:
Assay type in all cases: functional
A549 = test: Cytotoxicity against human A549 cells by sulforhodamine B method
MCF7 = test: Cytotoxicity against human MCF7 cells by sulforhodamine B method
[1] = Cytotoxicity against human Gurav cells by sulforhodamine B method
A2780 = test: Cytotoxicity against human A2780 cells by sulforhodamine B method
ZR-75-1 = test: Cytotoxicity against human ZR-75-1 cells by sulforhodamine B method
KB = test: Cytotoxicity against human KB cells by sulforhodamine B method
HOP-62 = test: Cytotoxicity against human HOP62 cells by sulforhodamine B method
COLO 205 = test: Cytotoxicity against human COLO205 cells by sulforhodamine B method
PC-3 = test: Cytotoxicity against human PC3 cells by sulforhodamine B method
SiHa = test: Cytotoxicity against human SiHa cells by sulforhodamine B method
[2] = Cytotoxicity against human DWD cells by sulforhodamine B method

SMILES	GI50 (A549)	GI50 (MCF7)	GI50 [1]	GI50 (A2780)	GI50 (ZR-75-1)	GI50 (KB)	GI50 (HOP-62)	GI50 (COLO 205)	GI50 (PC-3)	GI50 (SiHa)	GI50 [2]
COc1cc2c(cc1OCCCCCN1CCN(CCCCCOc3ccc4c(c3)CC[C@@H]3[C@@H]4CC[C@]4(C)[C@@H](O)CC[C@@H]34)CC1)N=C[C@@H]1CC(F)(F)CN1C2=O	130 nM	140 nM	150 nM	160 nM	120 nM	810 nM	170 nM	170 nM	190 nM	190 nM	1320 nM
COc1cc2c(cc1OCCCOc1ccc3c(c1)CC[C@@H]1[C@@H]3CC[C@]3(C)[C@@H](O)CC[C@@H]13)N=C[C@@H]1CCCN1C2=O	2100 nM	170 nM	2050 nM	1190 nM	1190 nM	2110 nM	2230 nM	160 nM	2080 nM	2120 nM	170 nM
COc1cc2c(cc1OCCCCCOc1ccc3c(c1)CC[C@@H]1[C@@H]3CC[C@]3(C)[C@@H](O)CC[C@@H]13)N=C[C@@H]1CC(F)(F)CN1C2=O	2810 nM	170 nM	2190 nM	2120 nM	190 nM	140 nM	2110 nM	200 nM	2420 nM	2810 nM	2170 nM
COc1cc2c(cc1OCc1cn(CCCOc3ccc4c(c3)CC[C@@H]3[C@@H]4CC[C@]4(C)[C@@H](O)CC[C@@H]34)nn1)N=C[C@@H]1CCCN1C2=O	180 nM	120 nM	170 nM	170 nM	190 nM	310 nM	1180 nM	170 nM	190 nM	1140 nM	160 nM
COc1cc2c(cc1OCCCOc1ccc3c(c1)CC[C@@H]1[C@@H]3CC[C@]3(C)[C@@H](O)CC[C@@H]13)N=C[C@@H]1CC(F)(F)CN1C2=O	2810 nM	170 nM	2180 nM	2100 nM	180 nM	150 nM	2110 nM	100 nM	2400 nM	2810 nM	2040 nM
COc1cc2c(cc1OCCCN1CCN(CCCOc3ccc4c(c3)CC[C@@H]3[C@@H]4CC[C@]4(C)[C@@H](O)CC[C@@H]34)CC1)N=C[C@@H]1CC(F)(F)CN1C2=O	120 nM	< 100 nM	130 nM	110 nM	120 nM	170 nM	150 nM	140 nM	130 nM	160 nM	100 nM
COc1cc2c(cc1OCCCCCOc1ccc3c(c1)CC[C@@H]1[C@@H]3CC[C@]3(C)[C@@H](O)CC[C@@H]13)N=C[C@@H]1C[C@@H](F)CN1C2=O	180 nM	150 nM	180 nM	190 nM	170 nM	2170 nM	190 nM	170 nM	190 nM	2310 nM	1900 nM
COc1cc2c(cc1OCCCCCN1CCN(CCCCCOc3ccc4c(c3)CC[C@@H]3[C@@H]4CC[C@]4(C)[C@@H](O)CC[C@@H]34)CC1)N=C[C@@H]1CCCN1C2=O	160 nM	140 nM	190 nM	1700 nM	170 nM	190 nM	1170 nM	1160 nM	190 nM	170 nM	170 nM
COc1cc2c(cc1OCc1cn(CCCOc3ccc4c(c3)CC[C@@H]3[C@@H]4CC[C@]4(C)[C@@H](O)CC[C@@H]34)nn1)N=C[C@@H]1CC(F)(F)CN1C2=O	170 nM	110 nM	170 nM	1270 nM	170 nM	190 nM	180 nM	140 nM	140 nM	1120 nM	170 nM
COc1cccc2c1C(=O)c1c(O)c3c(c(O)c1C2=O)C[C@@](O)(C(=O)CO)C[C@@H]3O[C@H]1C[C@H](N)[C@H](O)[C@H](C)O1 [DOXORUBICIN HYDROCHLORIDE]		170 nM	170 nM	160 nM		170 nM	140 nM	140 nM		170 nM	100 nM
COc1cc2c(cc1OCCCOc1ccc3c(c1)CC[C@@H]1[C@@H]3CC[C@]3(C)[C@@H](O)CC[C@@H]13)N=C[C@@H]1C[C@@H](F)CN1C2=O	180 nM	140 nM	190 nM	170 nM	140 nM	2160 nM	180 nM	160 nM	190 nM	2120 nM	1700 nM
COc1cc2c(cc1OCCCCCN1CCN(CCCCCOc3ccc4c(c3)CC[C@@H]3[C@@H]4CC[C@]4(C)[C@@H](O)CC[C@@H]34)CC1)N=C[C@@H]1C[C@@H](F)CN1C2=O	110 nM	130 nM	130 nM	110 nM	< 100 nM	140 nM	130 nM	140 nM	170 nM	160 nM	150 nM
COc1cc2c(cc1OCc1cn(CCCCCOc3ccc4c(c3)CC[C@@H]3[C@@H]4CC[C@]4(C)[C@@H](O)CC[C@@H]34)nn1)N=C[C@@H]1CCCN1C2=O	190 nM	140 nM	180 nM	170 nM	110 nM	800 nM	1690 nM	170 nM	190 nM	1170 nM	170 nM
COc1cc2c(cc1OCCCCCOc1ccc3c(c1)CC[C@@H]1[C@@H]3CC[C@]3(C)[C@@H](O)CC[C@@H]13)N=C[C@@H]1CCCN1C2=O	2200 nM	170 nM	2040 nM	1190 nM	1190 nM	2130 nM	2240 nM	190 nM	2190 nM	2180 nM	180 nM
